Laboratory results published in US11661439B2, “Peptide hydrogels and use thereof” (The United States of America, as represented by the …, priority 2017, dated 2023).
Non-standard residues stand in square brackets, D forms with d. Residues, ends and D or L forms follow the SMILES beside them.

Experiments:
[1] = TEM analysis of peptide fibrils; format: physicochemical; settings: 30 independent measurements
Procedure: FIG. 4. Fibril visualization of β-hairpin peptide hydrogels. Transmission Electron Microscopy (TEM) images of peptide fibrils and frequency distributions determined from 30 independent measurements (scale bar=100 nm).
Transmission electron microscopy (TEM) analysis. The hydrogel nanostructure of the peptide gels was observed using a Hitachi H-7650 transmission electron microscope at a voltage of 80 kV. A 1 wt % solution of peptide and an equal volume of buffer (50 mM HEPES containing 300 mM NaCl, pH 7.4) was mixed and incubated overnight at 37° C. to allow for gelation. The next day, samples for TEM analysis were prepared by suspending 5 μL of the resulting peptide gel in 195 μL of water to yield a 40-fold dilution. Small amounts (5 μL) of each diluted gel solution were applied to separate carbon coated copper grids. After 1 min, the grid was washed with water. Then, a 1 w/v % uranyl acetate aqueous solution was placed on each grid for negative staining. Excess staining solution was blotted away, left to air dry, and the grids were imaged immediately.

RFP-HDFs = test: Hydrogel-based in vivo cell delivery with RFP fluorescence imaging; design: species or system athymic nude mice
Description: In vivo studies. Six- to eight-week-old non-tumor bearing female athymic nude mice were used for this experiment (n=3). Animal care was in accordance with the procedures outlined in the Guide for Care and Use of Laboratory Animals (National Research Council, 1996; National Academy Press, Washington, D.C.) and animal protocols were approved by the Frederick National Laboratory for Cancer Research (FNLCR) Institutional Animal Care and Use Committee.
Hydrogel-based in vivo cell transplantation. RFP-HDFs were encapsulated in 0.5 wt % AcVES3-RGDV at 10^7 cells mL^−1 as described in the 3D cell culture section. After gelation, the cell-peptide gel (10^6 cells per 100 μL) was injected into the left dorsal region of the mouse and as a control, RFP-HDF suspension in serum-free DMEM (10^6 cells per 100 μL) was injected into the right dorsal region of the mouse.
In vivo fluorescence imaging. Multispectral fluorescence imaging was performed daily (Monday-Friday) for 42 days using a Maestro Flex imager (PerkinElmer). Briefly, mice were anesthetized for 3-4 minutes in an induction chamber with 3% isoflurane with filtered air (0.2 μm filter) used as a carrier at a flow rate of 1 liter per minute. After isoflurane induction, the mice were transferred to an imaging chamber, where isoflurane was reduced to 2% and O2 was used as a carrier. The imaging platform was kept at 37° C. to maintain the mouse's internal temperature. Image acquisition (Maestro software, ver. 2.10.0) of the RFP fluorescence signal utilized a 533±26 nm excitation filter (placed in front of the 300 W xenon excitation source), a 580 nm long-pass filter (placed in front of the CCD) and implementing a multispectral imaging acquisition of 550-720 nm range, 10 nm increment, auto exposure (typically 0.5-5 seconds per emission wavelength), with a 2×2 pixel binning, resulting in a stack of images (image cube). RFP signal was distinguished from the tissue autofluorescence by employing vendor specified unmixing protocol. Quantitative analysis was performed by drawing a standard circular region of interest (ROI) over the injection site of the unmixed RFP component image. The total RFP signal (scaled counts second^−1) within each ROI was measured and plotted as a function of time.
Collection of RFP-HDFs from the tissue graft. After in vivo imaging on day 42, mice were euthanized using CO2 and ex vivo images (Maestro Software) were acquired by exposing the cell-peptide gel injection site. Image acquisition and processing were performed with the same parameters as performed for in vivo imaging as stated above. Utilizing the unmixed RFP image to guide resecting the RFP-positive tissue, the RFP positive cells were resected and then homogenized by squeezing them through a cell strainer. The collected cells were then cultured on a tissue culture plate with FBS-supplemented DMEM for 10 days and observed using an EVOS FL Auto Cell Imaging System.

[2] = system: human dermal fibroblasts (HDFs); test: 3D cell encapsulation culture of HDFs in gels; format: cell-based
Procedure: 3D cell culture in peptide gels. Peptides were initially dissolved in 285 mM sucrose at 1 wt % on ice and mixed with an equal volume of cell suspension in serum-free HEPES-supplemented DMEM (2×10^6 cells mL^−1). The cell-peptide suspension (5×10^4 cells per 50 μL per insert) was transferred to a Falcon cell culture insert (for 24-well plates, 8 μm pore size, Corning) and incubated at 37° C. for 30 min for gelation. These inserts were previously coated with the empty hydrogel (30 μL per insert) to avoid cell adhesion to the bottom surface of the inserts. After gelation of cell-peptide solution, 500 μL of Essential 8 Medium were added to the top and bottom of the gels. Type I collagen gels were prepared following manufacturer's instructions. Briefly, a 0.4 wt % collagen solution was prepared on ice and mixed with cell suspension in serum-free DMEM (4×10^6 cells mL^−1) at a ratio of 3:1 (0.3 wt % collagen, 1×10^6 cells mL^−1).
Cell viability assay. Cell viability was evaluated by live and dead cell staining after 2D and 3D cell culture. Serum-free DMEM containing 1 μM calcein-AM and 2 μM ethidium homodimer-1 was added to the cells (200 μL per well for 2D culture and 500 μL each to the top and bottom of the gels for 3D culture). After incubation at 37° C. for 30 min, live and dead cells were visualized using EVOS FL Auto Cell Imaging System (Thermo Fisher Scientific). For the pseudo-colored composite image of varying heights of encapsulated cells, images of the live-stained cells were captured every 5 μm of height. Then Z-stack images for each 100 μm were flattened using the EVOS software, and the flattened images were pseudo-colored and merged using ImageJ.
Cell proliferation assay. A cell proliferation assay was performed using Cell Counting Kit-8 (CCK-8, Dojindo Molecular Technologies) for 2D and 3D cell culture. […] Subsequently, media were transferred to 96-well plates (150 μL per well) and their absorbance measured at 450 nm relative to control viabilities from day 0 for 2D cell culture and day 1 for 3D cell culture. […]

For `CC(=O)N[C@H](C(=O)N[C@@H](CCC(=O)O)C(=O)N[C@H](C(=O)N[C@@H](CO)C(=O)N[C@H](C(=O)N[C@@H](CO)C(=O)N[C@H](C(=O)N[C@@H](CCC(=O)O)C(=O)N[C@H](C(=O)N1CCC[C@@H]1C(=O)N1CCC[C@H]1C(=O)N[C@H](C(=O)N[C@@H](CCC(=O)O)C(=O)N[C@H](C(=O)N[C@@H](CO)C(=O)N[C@H](C(=O)N[C@@H](CCC(=O)O)C(=O)N[C@H](C(=O)N[C@@H](CCC(=O)O)C(=O)N[C@H](C(=O)NCC(=O)NCC(=O)NCC(=O)NCC(=O)N[C@@H](CCCNC(=N)N)C(=O)NCC(=O)N[C@@H](CC(=O)O)C(=O)N[C@H](C(N)=O)C(C)C)C(C)C)C(C)C)C(C)C)C(C)C)[C@@H](C)O)C(C)C)C(C)C)C(C)C)C(C)C)C(C)C` [AcVES3-RGDV] (Ac-VEVSVSVEV[dP]PTEVSVEVEVGGGGRGDV-NH2), the average fibril width [1] was 4.0±0.4 nm, the “retention of cells after initial injection” value (RFP-HDFs; 10^6 RFP-HDFs per 100 μL gel) was “over 40 days” and the “slowing of dissipation of injected cells versus cell suspension control” value (RFP-HDFs; 10^6 RFP-HDFs per 100 μL, dorsal injection, from slopes of the lines) was ~6 fold. The “RFP signal still detected at injection site” value (RFP-HDFs; day 42) was “approximately 2%”, the “inflammation around the injection site” value (RFP-HDFs; day 42, dissected subcutaneous tissue) was “no apparent inflammation” and the “localization, retention and engraftment of delivered cells” value (RFP-HDFs; mouse, in vivo) was “dramatically enhance localization and retention of the delivered cells and also support engraftment”. The “cell proliferation rate relative to the collagen gel” value ([2]; 3D culture, Essential 8 Medium) was 2-3 fold, the “cell proliferation of encapsulated HDFs, 3D culture” value ([2]; Essential 8 Medium, one week) was “proliferated well with minimal cell death” and the “distribution of encapsulated cells in the gel” value ([2]; day 4, heights 0-500 μm) was “homogenously distributed throughout the gel matrix”.
